Usually melting point stands for the temperature, or range, at which the solid turns liquid.

For series [1], the target named is T1, human A2a receptor subtype (Homo sapiens, UniProt P29274).
T1 construct: purchased Receptor Biology (Beltsville, Md.) RB-HA2a
Kind of series: Adenosine 2a receptor subtype competition radioligand binding ([3H]CGS-21680, HEK293 membranes). Conditions: Table 13; probably % activity @ 10 μM (footnote 8).

A further series concerns the target A1 adenosine receptor (Homo sapiens, UniProt P30542). Conditions: cited from earlier work.

T1 sequence (P29274 whole entry): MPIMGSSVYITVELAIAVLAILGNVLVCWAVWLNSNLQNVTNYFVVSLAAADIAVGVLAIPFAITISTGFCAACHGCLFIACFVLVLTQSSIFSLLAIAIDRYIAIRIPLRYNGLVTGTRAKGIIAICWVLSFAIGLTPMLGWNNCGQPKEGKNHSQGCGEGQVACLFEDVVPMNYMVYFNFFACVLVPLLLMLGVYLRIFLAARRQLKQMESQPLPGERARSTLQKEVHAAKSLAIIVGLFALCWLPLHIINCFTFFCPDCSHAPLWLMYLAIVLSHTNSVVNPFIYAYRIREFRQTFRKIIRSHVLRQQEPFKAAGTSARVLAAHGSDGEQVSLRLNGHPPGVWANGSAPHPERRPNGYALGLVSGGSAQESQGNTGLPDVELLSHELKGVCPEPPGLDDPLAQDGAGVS
A1 adenosine receptor, sequence (P30542 whole entry): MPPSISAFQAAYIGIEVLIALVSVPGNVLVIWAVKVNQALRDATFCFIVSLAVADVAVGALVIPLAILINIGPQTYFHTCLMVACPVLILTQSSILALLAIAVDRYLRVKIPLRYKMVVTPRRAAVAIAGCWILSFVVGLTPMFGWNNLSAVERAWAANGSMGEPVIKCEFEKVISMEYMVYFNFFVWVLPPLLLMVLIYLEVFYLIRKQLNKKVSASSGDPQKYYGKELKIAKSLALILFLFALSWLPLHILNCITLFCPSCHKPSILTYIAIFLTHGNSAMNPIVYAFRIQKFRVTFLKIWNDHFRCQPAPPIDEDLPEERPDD

Regarding `CNC(=O)NCCCNc1nc(-c2ccccc2)nc2[nH]c(C)c(C)c12` [Compound 1310], the “A2a, value printed as %” value in series [1] is listed as 76%.

For `CC(=O)NCCNc1nc(-c2ccccc2)nc2[nH]c(COc3ccccc3)cc12` [Example 17, 4-(2-acetylaminoethyl)amino-6-phenoxymethyl-2-phenyl-7H-pyrrolo[2,3d]pyrimidine], the melting point is 196 to 197 °C.

In turn, `c1ccc(-c2nc(NCCc3cnc[nH]3)c3cc[nH]c3n2)cc1` [Compound 1720, [2-(3H-Imidazol-4-yl)-ethyl]-(2-phenyl-7H-pyrrolo[2,3-d]pyrimidin-4-yl)-amine] came in with a melting point of 234 to 235 °C.

As to `CC(Cc1ccccc1)Nc1ncnc2c1ncn2[C@@H]1O[C@H](CO)[C@@H](O)[C@H]1O` (single isomer, unassigned; (-)) [PIA, (−)-N6-(2-phenylisopropyl)-adenosine], at A1 adenosine receptor, the reported affinity result is listed as “approximately 50 nM”.

The values are drawn from patent US6673802B2, “Compounds specific to adenosine A3 receptor and uses thereof” (OSI Pharmaceuticals, Inc., priority 2000, dated 2004).
